Reference: publication PMC1976805, “Preclinical pharmacokinetics of benznidazole” (British Journal of Cancer, 1984)
Several values for one entry are separate records, joined by “and”; a condition that tells them apart may be missing. Equal entries are not always repeated. Where two headings read alike, the source gives them in different places.

How the values were obtained:
[1] = Whole plasma pharmacokinetics in dogs (HPLC); type: in vivo, dog
Text: Br. J. Cancer (1984), 50, 291-303 Preclinical pharmacokinetics of benznidazole P. Workman', R.A.S. White2, M.I. Walton', L.N. Owen2* & P.R. Twentyman' 1MRC Clinical Oncology and Radiotherapeutics Unit, MRC Centre, Hills Road, Cambridge CB2 2QH, and 2Department of Clinical Veterinary Medicine, University of Cambridge, Madingley Road, Cambridge CB3 OES, UK. […] We have investigated the detailed pharmacokinetics of benznidazole in mice, dogs and sheep to provide a data base for the estimation of doses required for chemosensitization in man. Pharmacokinetic behaviour was linear except at high doses in mice. Absorption was fairly rapid and bioavailability was complete following both i.p. administration in mice and oral administration in dogs. Elimination t4 values were longer than for MISO, being 90 min in mice, 4-5 h in sheep and 9-11 h in dogs. At doses giving linear kinetics, peak whole plasma concentrations per administered mgkg-1 were 0.75 jigml-1 for the i.p. route in mice and 1.8jugmlP' for the oral route in dogs. Though between 39 and 59% of plasma benznidazole was bound to protein, tissue penetration was generally good. Tissue/whole plasma ratios ranged from 59-99% for transplantable mouse tumours and from 14-70% for spontaneous dog neoplasms. Nervous tissue penetration was similar to that in tumours: brain/whole plasma ratios averaged between 61 and 76% in mice and 42% in dogs, while peripheral nerve/whole plasma ratios in dogs averaged 74%. Mean liver/whole plasma ratios were 42% and 71% in BALB/c and C3H/He mouse strains respectively. Only -5% of the administered dose was excreted unchanged in the urine, indicating the likelihood of extensive metabolism. […] Enhancement of CCNU response is likely to require circulating benznidazole concentrations of 10-30 pgml-1 and we predict that these will be obtained with oral doses of 6-20 mgkg- 1 in man. […] This enhancement, or chemosensitization, is usually greater than that seen in dose-limiting normal tissues, resulting in an improved therapeutic index. Because of the relatively high doses of MISO usually required for chemosensitization in mice (see above refs), and also because of its neurotoxicity in man (Dische et al., 1977), we have been interested in finding an improved chemosensitizer. […] The lipophilic ana- logue benznidazole (N-benzyl-(2-nitroimidazolyl) acetamide, Ro 07-1051; Radanil; Roche), the structure of which is shown in Figure 1, was selected for detailed study because of its ability to *Present address: Animal Health Trust, Small Animals Centre, Lanwades Park, Kennett, Newmarket, Suffolk CB8 7PN, UK. Correspondence: P. Workman. […] These findings have been confirmed independently by Siemann et al. (1983). Although benznidazole is used quite widely in South America to treat patients with the trypanosomal infection Chagas' disease or with mucotaneous Leishmaniasis (Barclay et al., 1978; Cerisola et al., 1978; Coura et al., 1978; Fava et al., 1978), apart from our preliminary studies (White et al., 1982) the only published data on its pharmaco- kinetics are for human plasma concentrations measured by polarography (Raaflub & Ziegler, 1979; Raaflub, 1980). Here we describe the pharmacokinetics of benznidazole in the mouse, sheep and dog, as determined by high-performance liquid chromatography (HPLC). […] The Macmillan Press Ltd., 1984 292 P. WORKMAN et al. particularly on plasma and tumour concentrations, have been used as a basis for the estimation of the benznidazole doses required in a Phase I trial of benznidazole plus CCNU, at present ongoing in our Unit. Materials and methods Animals and tumours Adult inbred male BALB/c mice were obtained from OLAC (Southern) Ltd. (Bicester, UK) and adult inbred C3H/He mice of both sexes from OLAC and our own breeding colony. Mice were housed in plastic cages on sawdust bedding made from soft white woods, and allowed laboratory chow and water ad lib. They were used at 20-35 g body wt.

[2] = 24 h urinary recovery of unchanged drug in mice; type: in vivo, mouse; conditions: for dose excreted: male, BALB/c, mouse, urine, ip, 650 mg kg-1, BALB/c mice, 650 mg kg-1 i.p.
Text: Br. J. Cancer (1984), 50, 291-303 Preclinical pharmacokinetics of benznidazole P. Workman', R.A.S. White2, M.I. Walton', L.N. Owen2* & P.R. Twentyman' 1MRC Clinical Oncology and Radiotherapeutics Unit, MRC Centre, Hills Road, Cambridge CB2 2QH, and 2Department of Clinical Veterinary Medicine, University of Cambridge, Madingley Road, Cambridge CB3 OES, UK. […] We have investigated the detailed pharmacokinetics of benznidazole in mice, dogs and sheep to provide a data base for the estimation of doses required for chemosensitization in man. Pharmacokinetic behaviour was linear except at high doses in mice. Absorption was fairly rapid and bioavailability was complete following both i.p. administration in mice and oral administration in dogs. Elimination t4 values were longer than for MISO, being 90 min in mice, 4-5 h in sheep and 9-11 h in dogs. At doses giving linear kinetics, peak whole plasma concentrations per administered mgkg-1 were 0.75 jigml-1 for the i.p. route in mice and 1.8jugmlP' for the oral route in dogs. Though between 39 and 59% of plasma benznidazole was bound to protein, tissue penetration was generally good. Tissue/whole plasma ratios ranged from 59-99% for transplantable mouse tumours and from 14-70% for spontaneous dog neoplasms. Nervous tissue penetration was similar to that in tumours: brain/whole plasma ratios averaged between 61 and 76% in mice and 42% in dogs, while peripheral nerve/whole plasma ratios in dogs averaged 74%. […] Although benznidazole is used quite widely in South America to treat patients with the trypanosomal infection Chagas' disease or with mucotaneous Leishmaniasis (Barclay et al., 1978; Cerisola et al., 1978; Coura et al., 1978; Fava et al., 1978), apart from our preliminary studies (White et al., 1982) the only published data on its pharmaco- kinetics are for human plasma concentrations measured by polarography (Raaflub & Ziegler, 1979; Raaflub, 1980). Here we describe the pharmacokinetics of benznidazole in the mouse, sheep and dog, as determined by high-performance liquid chromatography (HPLC). […]

[3] = parameters: method as in earlier work; conditions: patients, 5 mg kg-1 day-1 for 30 days, side effects incl. peripheral neuropathy observed in these studies, ref Barclay et al., 1978, Cerisola et al., Coura et al., Fava et al.; cited from earlier work
[4] = Tissue penetration in dogs bearing spontaneous neoplasms; type: in vivo, dog; conditions: for Kp: dog
Text: Br. J. Cancer (1984), 50, 291-303 Preclinical pharmacokinetics of benznidazole P. Workman', R.A.S. White2, M.I. Walton', L.N. Owen2* & P.R. Twentyman' 1MRC Clinical Oncology and Radiotherapeutics Unit, MRC Centre, Hills Road, Cambridge CB2 2QH, and 2Department of Clinical Veterinary Medicine, University of Cambridge, Madingley Road, Cambridge CB3 OES, UK. […] We have investigated the detailed pharmacokinetics of benznidazole in mice, dogs and sheep to provide a data base for the estimation of doses required for chemosensitization in man. Pharmacokinetic behaviour was linear except at high doses in mice. Absorption was fairly rapid and bioavailability was complete following both i.p. administration in mice and oral administration in dogs. Elimination t4 values were longer than for MISO, being 90 min in mice, 4-5 h in sheep and 9-11 h in dogs. At doses giving linear kinetics, peak whole plasma concentrations per administered mgkg-1 were 0.75 jigml-1 for the i.p. route in mice and 1.8jugmlP' for the oral route in dogs. Though between 39 and 59% of plasma benznidazole was bound to protein, tissue penetration was generally good. Tissue/whole plasma ratios ranged from 59-99% for transplantable mouse tumours and from 14-70% for spontaneous dog neoplasms. Nervous tissue penetration was similar to that in tumours: brain/whole plasma ratios averaged between 61 and 76% in mice and 42% in dogs, while peripheral nerve/whole plasma ratios in dogs averaged 74%. Mean liver/whole plasma ratios were 42% and 71% in BALB/c and C3H/He mouse strains respectively. Only -5% of the administered dose was excreted unchanged in the urine, indicating the likelihood of extensive metabolism. […] Enhancement of CCNU response is likely to require circulating benznidazole concentrations of 10-30 pgml-1 and we predict that these will be obtained with oral doses of 6-20 mgkg- 1 in man. […] This enhancement, or chemosensitization, is usually greater than that seen in dose-limiting normal tissues, resulting in an improved therapeutic index. Because of the relatively high doses of MISO usually required for chemosensitization in mice (see above refs), and also because of its neurotoxicity in man (Dische et al., 1977), we have been interested in finding an improved chemosensitizer. […] The lipophilic ana- logue benznidazole (N-benzyl-(2-nitroimidazolyl) acetamide, Ro 07-1051; Radanil; Roche), the structure of which is shown in Figure 1, was selected for detailed study because of its ability to *Present address: Animal Health Trust, Small Animals Centre, Lanwades Park, Kennett, Newmarket, Suffolk CB8 7PN, UK. Correspondence: P. Workman. […] These findings have been confirmed independently by Siemann et al. (1983). Although benznidazole is used quite widely in South America to treat patients with the trypanosomal infection Chagas' disease or with mucotaneous Leishmaniasis (Barclay et al., 1978; Cerisola et al., 1978; Coura et al., 1978; Fava et al., 1978), apart from our preliminary studies (White et al., 1982) the only published data on its pharmaco- kinetics are for human plasma concentrations measured by polarography (Raaflub & Ziegler, 1979; Raaflub, 1980). Here we describe the pharmacokinetics of benznidazole in the mouse, sheep and dog, as determined by high-performance liquid chromatography (HPLC). […]

Aqueous solubility = type: physicochemical
[5] = Plasma pharmacokinetics in man (literature); type: in vivo; conditions: oral doses of 6-20 mg kg-1, extrapolated from dog and literature human data

O=C(Cn1ccnc1[N+](=O)[O-])NCc1ccccc1 [benznidazole, N-benzyl-(2-nitroimidazolyl) acetamide]
peak time ([1]; dog C, 5 mg kg-1 i.v.): 0.083 h | peak time ([1]; dog C, 12.5 mg kg-1 oral): 1 h | peak time ([1]; dog C, 25 mg kg-1 oral): 5 h | peak whole plasma concentration ([1]; dog C, collie crossbred 28 kg, 5 mg kg-1 i.v.): 12.7 µg/mL | peak whole plasma concentration ([1]; dog C, collie crossbred 28 kg, 12.5 mg kg-1 oral): 26.5 µg/mL | peak whole plasma concentration ([1]; dog C, collie crossbred 28 kg, 25 mg kg-1 oral): 38.9 µg/mL | peak time ([1]; dog D, 5 mg kg-1 i.v.): 0.083 h | peak time ([1]; dog D, 12.5 mg kg-1 oral): 12 h | peak time ([1]; dog D, 25 mg kg-1 oral): 3 h | peak whole plasma concentration ([1]; dog D, collie crossbred 20 kg, 5 mg kg-1 i.v.): 12.4 µg/mL | peak whole plasma concentration ([1]; dog D, collie crossbred 20 kg, 12.5 mg kg-1 oral (slow, prolonged absorption)): 13.1 µg/mL | peak whole plasma concentration ([1]; dog D, collie crossbred 20 kg, 25 mg kg-1 oral): 46.5 µg/mL | peak whole plasma concentration ([1]; dog E, beagle 9 kg, 50 mg kg-1 oral): 59.8 µg/mL | peak time ([1]; dog F, 50 mg kg-1 oral): 3 h | peak whole plasma concentration ([1]; dog F, beagle 10 kg, 50 mg kg-1 oral): 54.8 µg/mL | Tmax ([1]; dog, plasma, po, dogs, discussion summary, read-out: time of peak concentrations after oral dosing): 3 to 5 h | overall oral bioavailability (dose-normalised AUC0-∞ oral vs i.v.) ([1]; dogs C and D): about 130% | peak concentrations readily achieved ([1]; dogs, oral doses of 25-50 mg kg-1): 50 µg/mL | average peak whole plasma concentration ([1]; large crossbred dogs, 12.5 mg kg-1 oral): 20 µg/mL | average peak whole plasma concentration ([1]; large crossbred dogs, 25 mg kg-1 oral): 47 µg/mL | mean peak whole plasma concentration per administered mg kg-1 ([1]; large crossbred dogs, oral route (s.e., n=6)): 1.8 µg ml-1 and 1.77 + 0.17 µg ml-1 | dose excreted ([2]; experiment 1): 4.8% | dose excreted ([2]; experiment 2): 5.2% | administered dose excreted unchanged in the urine ([2]; summary value): approximately 5% | tolerability [3]: well tolerated | tissue/whole plasma ratio, overall mean + s.e. ([4]; 24 neoplastic tissue samples (excluding cyst fluid)): 50+3% | absolute neoplastic tissue concentration, overall mean+s.e. ([4]; 24 samples, 1.67-4.5 h, normalised to 12.5 mg kg-1 oral): 5.6 +0.5 µg g-1 | Kp ([4]; liver/whole plasma, first of the two values obtained, read-out: liver/whole plasma ratio): 0.14 | Kp ([4]; liver/whole plasma, second of the two values obtained, read-out: liver/whole plasma ratio): 0.51 | Kp ([4]; tumour (spontaneous neoplastic tissue), po, neoplastic tissues, 12.5 (one dog 25) mg kg-1 oral, 1.67-4.5 h, read-out: tissue/whole plasma ratios, range): 0.14 to 0.7 | aqueous solubility (Aqueous solubility): low aqueous solubility | predicted circulating (peak whole plasma) concentrations [5]: 10-30 micrograms ml-1
